# Assay results: ChEMBL document CHEMBL5523723, “G Protein-Coupled Estrogen Receptor-Mediated Anti-Inflammatory and Mucosal Healing Activity of a Trimethylpyridinol Analogue in Inflammatory Bowel Disease” (J Med Chem, 2024)
# Activity calls are given as the source filed them. The rule behind the calls is not given here.
# Columns and labels:
# [1] = test system: U-937; experiment: Inhibition of TNFalpha induced adhesion of TPA treated human U-937 cells to human HT-29 cells at 1 uM pretreated with HT-29 for 1 hr followed by U-937 addition along with TNFalpha stimulation for 3 hrs by fluorescence based microplate reader assay relative to control; format: functional; details: time 4 hrs
# [2] = Inhibition of IL6 induced adhesion of TPA treated human U-937 cells to human HT-29 cells at 1 uM pretreated with HT-29 for 1 hr followed by U-937 addition along with IL6 stimulation for 3 hrs by fluorescence based microplate reader assay relative to control; format: functional; details: time 4 hrs
# [3] = test system: HT-29; experiment: Inhibition of TNFalpha induced nuclear translocation of NF-kappaB in human HT-29 cells at 10 uM pretreated with for 3 hrs followed by TNFalpha addition by Western blotting analysis; format: functional, cell-based
# [4] = test system: HT-29; experiment: Induction of apoptosis in human HT-29 cells assessed as necrotic cells at 5 uM incubated for 24 hrs by Annexin V FITC/PI staining based flow cytometry analysis ( Rvb = 0.2%); format: functional
# [5] = test system: HT-29; experiment: Induction of apoptosis in human HT-29 cells assessed as early apoptotic cells at 10 uM incubated for 24 hrs by Annexin V FITC/PI staining based flow cytometry analysis ( Rvb = 0%); format: functional
# [6] = test system: HT-29; experiment: Induction of apoptosis in human HT-29 cells assessed as necrotic cells at 1 uM incubated for 24 hrs by Annexin V FITC/PI staining based flow cytometry analysis ( Rvb = 0.2%); format: functional
# [7] = test system: U-937; experiment: Induction of apoptosis in human U-937 cells assessed as viable cells at 1 uM incubated for 24 hrs by Annexin V FITC/PI staining based flow cytometry analysis ( Rvb = 95.2 +/- 0.4%); format: functional; details: read-out: Activity
# [8] = test system: HT-29; experiment: Induction of apoptosis in human HT-29 cells assessed as early apoptotic cells at 1 uM incubated for 24 hrs by Annexin V FITC/PI staining based flow cytometry analysis ( Rvb = 0%); format: functional
# [9] = test system: U-937; experiment: Induction of apoptosis in human U-937 cells assessed as viable cells at 5 uM incubated for 24 hrs by Annexin V FITC/PI staining based flow cytometry analysis ( Rvb = 95.2 +/- 0.4%); format: functional; details: read-out: Activity
# [10] = test system: U-937; experiment: Induction of apoptosis in human U-937 cells assessed as necrotic cells at 10 uM incubated for 24 hrs by Annexin V FITC/PI staining based flow cytometry analysis( Rvb = 0.2 +/- 0.1%); format: functional
# [11] = test system: HT-29; experiment: Induction of apoptosis in human HT-29 cells assessed as viable cells at 1 uM incubated for 24 hrs by Annexin V FITC/PI staining based flow cytometry analysis ( Rvb = 99 +/- 0.1%); format: functional; details: read-out: Activity
# [12] = test system: HT-29; experiment: Induction of apoptosis in human HT-29 cells assessed as viable cells at 5 uM incubated for 24 hrs by Annexin V FITC/PI staining based flow cytometry analysis ( Rvb = 99 +/- 0.1%); format: functional; details: read-out: Activity
# [13] = test system: U-937; experiment: Induction of apoptosis in human U-937 cells assessed as viable cells at 10 uM incubated for 24 hrs by Annexin V FITC/PI staining based flow cytometry analysis ( Rvb = 95.2 +/- 0.4%); format: functional; details: read-out: Activity
# [14] = test system: HT-29; experiment: Induction of apoptosis in human HT-29 cells assessed as viable cells at 10 uM incubated for 24 hrs by Annexin V FITC/PI staining based flow cytometry analysis ( Rvb = 99 +/- 0.1%); format: functional; details: read-out: Activity
# [15] = test system: U-937; experiment: Induction of apoptosis in human U-937 cells assessed as early apoptotic cells at 10 uM incubated for 24 hrs by Annexin V FITC/PI staining based flow cytometry analysis ( Rvb = 0.6 +/- 0.1 %); format: functional
# [16] = test system: HT-29; experiment: (§1) Mucosal healing effect in TNFalpha induced human HT-29 cells assessed as decrease in epithelial permeability by measuring reduced […] FITC-dextran 4 level at 10 uM pretreated with compound and G1 for 3 hrs followed by TNFalpha addition and subsequent FD4 addition and measured after 2 hrs by fluorescence based assay; format: functional, cell-based; details: time 5.0 hrs
# [17] = test system: HT-29; experiment: Induction of apoptosis in human HT-29 cells assessed as late apoptotic cells at 10 uM incubated for 24 hrs by Annexin V FITC/PI staining based flow cytometry analysis ( Rvb = 0.7%); format: functional
# [18] = test system: HT-29; experiment: as §1, with “at 0.1 to” for “at”, “pretreated” for “pretreated with compound and G1”; format: functional, cell-based; details: dose 0.1-10 µM, time 5.0 hrs
# [19] = test system: U-937; experiment: Induction of apoptosis in human U-937 cells assessed as late apoptotic cells at 1 uM incubated for 24 hrs by Annexin V FITC/PI staining based flow cytometry analysis ( Rvb = 4 +/- 0.2%); format: functional
# [20] = test system: HT-29; experiment: Induction of apoptosis in human HT-29 cells assessed as early apoptotic cells at 5 uM incubated for 24 hrs by Annexin V FITC/PI staining based flow cytometry analysis ( Rvb = 0%); format: functional
# [21] = test system: HT-29; experiment: Induction of apoptosis in human HT-29 cells assessed as necrotic cells at 10 uM incubated for 24 hrs by Annexin V FITC/PI staining based flow cytometry analysis ( Rvb = 0.2%); format: functional
# [22] = test system: HT-29; experiment: Induction of apoptosis in human HT-29 cells assessed as late apoptotic cells at 5 uM incubated for 24 hrs by Annexin V FITC/PI staining based flow cytometry analysis ( Rvb = 0.7%); format: functional
# [23] = test system: U-937; experiment: Induction of apoptosis in human U-937 cells assessed as early apoptotic cells at 1 uM incubated for 24 hrs by Annexin V FITC/PI staining based flow cytometry analysis ( Rvb = 0.6 +/- 0.1 %); format: functional
# [24] = test system: U-937; experiment: Induction of apoptosis in human U-937 cells assessed as late apoptotic cells at 5 uM incubated for 24 hrs by Annexin V FITC/PI staining based flow cytometry analysis ( Rvb = 4 +/- 0.2%); format: functional
# [25] = test system: HT-29; experiment: Inhibition of TNFalpha induced nuclear translocation of p-STAT3 in human HT-29 cells at 10 uM pretreated with for 3 hrs followed by TNFalpha addition by Western blotting analysis; format: functional, cell-based
# [26] = test system: U-937; experiment: Induction of apoptosis in human U-937 cells assessed as necrotic cells at 5 uM incubated for 24 hrs by Annexin V FITC/PI staining based flow cytometry analysis ( Rvb = 0.2 +/- 0.1%); format: functional
# [27] = test system: HT-29; experiment: Induction of apoptosis in human HT-29 cells assessed as late apoptotic cells at 1 uM incubated for 24 hrs by Annexin V FITC/PI staining based flow cytometry analysis ( Rvb = 0.7%); format: functional
# [28] = test system: U-937; experiment: Induction of apoptosis in human U-937 cells assessed as necrotic cells at 1 uM incubated for 24 hrs by Annexin V FITC/PI staining based flow cytometry analysis ( Rvb = 0.2 +/- 0.1%); format: functional
# [29] = test system: U-937; experiment: Induction of apoptosis in human U-937 cells assessed as late apoptotic cells at 10 uM incubated for 24 hrs by Annexin V FITC/PI staining based flow cytometry analysis ( Rvb = 4 +/- 0.2%); format: functional
# [30] = test system: U-937; experiment: Induction of apoptosis in human U-937 cells assessed as early apoptotic cells at 5 uM incubated for 24 hrs by Annexin V FITC/PI staining based flow cytometry analysis ( Rvb = 0.6 +/- 0.1 %); format: functional
structure (smiles),measurement,setting,value
Cc1nc(NC(=O)c2ccc(Cl)cc2Cl)c(C)c(C)c1O,inhibition at 1 µM,[1],58.6%
same,inhibition at 1 µM,[2],46.4%
Cc1nc(NC(=O)c2sc3cc(Cl)ccc3c2Cl)c(C)c(C)c1O,inhibition at 1 µM,[2],9%
Cc1nc(NC(=O)c2ccccc2F)c(C)c(C)c1O,inhibition at 1 µM,[1],36.4%
same,inhibition at 1 µM,[2],66.4%
Cc1nc(NC(=O)c2ccc(F)cc2F)c(C)c(C)c1O,inhibition at 1 µM,[1],71.4%
same,inhibition at 1 µM,[2],62.4%
Cc1nc(NC(=O)c2sc3ccccc3c2Cl)c(C)c(C)c1O,inhibition at 1 µM,[2],11.4%
COc1ccccc1C(=O)Nc1nc(C)c(O)c(C)c1C,inhibition at 1 µM,[1],58%
same,inhibition at 1 µM,[2],44%
Cc1nc(NC(=O)c2ccccc2Cl)c(C)c(C)c1O,inhibition at 1 µM,[1],7.9%
same,inhibition at 1 µM,[2],15%
Cc1nc(NC(=O)c2ccc(F)cc2)c(C)c(C)c1O,inhibition at 1 µM,[2],5.5%
COc1ccc(C(=O)Nc2nc(C)c(O)c(C)c2C)cc1,inhibition at 1 µM,[2],6.5%
Cc1ccc(C(=O)Nc2nc(C)c(O)c(C)c2C)cc1F,inhibition at 1 µM,[1],68.2%
same,inhibition at 1 µM,[2],59.5%
CC(=O)c1ccc2c(c1)[C@@H]1C=CC[C@@H]1[C@H](c1cc3c(cc1Br)OCO3)N2,inhibition,[3],Active
same,Activity,[4],2.7%
same,Activity,[5],4.3%
same,Activity,[6],1.3%
same,viability at 1 µM,[7],76.2%
same,Activity,[8],1%
same,viability at 5 µM,[9],66.6%
same,Activity,[10],0.4%
same,viability at 1 µM,[11],80.9%
same,viability at 5 µM,[12],66.6%
same,viability at 10 µM,[13],53.2%
same,viability at 10 µM,[14],61.4%
same,Activity,[15],7.2%
same,Activity,[16],Active
same,Activity,[17],33.3%
same,Activity,[18],Active
same,Activity,[19],16.2%
same,Activity,[20],2.9%
same,Activity,[21],1%
same,Activity,[22],27.9%
same,Activity,[23],7%
same,Activity,[24],28.2%
same,inhibition,[25],Active
same,Activity,[26],0.3%
same,Activity,[27],16.9%
same,Activity,[28],0.6%
same,Activity,[29],39.2%
same,Activity,[30],5.5%
Cc1nc(NC(=O)c2cc3ccccc3s2)c(C)c(C)c1O,inhibition at 1 µM,[2],27%
COc1ccc(C(=O)Nc2nc(C)c(O)c(C)c2C)c(OC)c1,inhibition at 1 µM,[1],30.9%
same,inhibition at 1 µM,[2],19.1%
Cc1ccc(C(=O)Nc2nc(C)c(O)c(C)c2C)o1,inhibition at 1 µM,[1],79.9%
same,inhibition at 1 µM,[2],70.2%
Cc1nc(NC(=O)c2c(-c3ccccc3)noc2C)c(C)c(C)c1O,inhibition at 1 µM,[1],18.8%
same,inhibition at 1 µM,[2],37.8%
Cc1nc(NC(=O)c2ccc(C(C)(C)C)cc2)c(C)c(C)c1O,inhibition at 1 µM,[2],29.4%
